Test results as given in the NIST ThermoML archive (doi:10.1016/j.jct.2013.12.012).
“And” between values parts separate entries of the source, which are not always exact repeats. Equal values may be shown once.

How the values were obtained:
[1] = for vapor or sublimation pressure: Closed cell (Static) method; for Normal melting temperature / Triple point temperature: DTA
[2] = molar heat capacity at constant pressure
[3] = Molar enthalpy of transition or fusion; details: DSC

C=C1C2CCC(C2)C1(C)C (stereo not drawn) [2,2-dimethyl-3-methylenebicyclo[2.2.1]heptane]
[1], Crystal
Details | vapor or sublimation pressure
238.15 K | 0.003435 kPa and 0.003436 kPa
243.15 K | 0.005761 kPa and 0.005765 kPa and 0.005768 kPa
248.15 K | 0.00946 kPa and 0.009464 kPa and 0.009473 kPa
253.15 K | 0.01527 kPa
258.15 K | 0.0241 kPa and 0.02413 kPa
263.15 K | 0.03746 kPa and 0.03747 kPa
268.15 K | 0.05698 kPa and 0.05699 kPa
273.15 K | 0.08514 kPa and 0.08515 kPa and 0.08516 kPa
273.65 K | 0.0885 kPa and 0.08853 kPa and 0.08854 kPa
278.15 K | 0.1252 kPa
283.15 K | 0.1811 kPa
288.15 K | 0.2585 kPa and 0.2586 kPa and 0.2587 kPa
293.15 K | 0.3628 kPa and 0.363 kPa and 0.3631 kPa
298.15 K | 0.5037 kPa and 0.5038 kPa and 0.5039 kPa
303.15 K | 0.6891 kPa and 0.6896 kPa and 0.69 kPa
308.15 K | 0.934 kPa and 0.9343 kPa and 0.9345 kPa

Crystal
Details | Molar enthalpy of transition or fusion [kJ/mol] | Normal melting temperature [°C]
[1] | – | 44.5
[3] | 2.7 | –

[2], 101.33 kPa, Large sample (1 g) DSC
Details | molar heat capacity at constant pressure [J/K/mol]
258.1 K, Crystal | 211.1
263.2 K, Crystal | 213.9
268.3 K, Crystal | 216.8
273.4 K, Crystal | 219.8
278.5 K, Crystal | 222.7
283.6 K, Crystal | 225.7
288.7 K, Crystal | 228.8
293.8 K, Crystal | 231.9
298.9 K, Crystal | 235.1
324.5 K, Liquid | 251.5
329.6 K, Liquid | 254.5
334.7 K, Liquid | 257.4
339.8 K, Liquid | 259.8
344.9 K, Liquid | 262.3
350 K, Liquid | 265.6
355.1 K, Liquid | 269.3

CC1(C)[C@H]2CC[C@]1(C)C(=O)C2 [(1S)-1,7,7-trimethylbicyclo[2.2.1]heptan-2-one]
[1], Crystal 2
Details | vapor or sublimation pressure
273.65 K | 0.00359 kPa and 0.003604 kPa and 0.003606 kPa
278.15 K | 0.005406 kPa and 0.005414 kPa and 0.00542 kPa
283.15 K | 0.008302 kPa and 0.008322 kPa and 0.008324 kPa
288.15 K | 0.01261 kPa and 0.01262 kPa and 0.0126 kPa
293.15 K | 0.01883 kPa and 0.01885 kPa and 0.01888 kPa
298.15 K | 0.02802 kPa and 0.02806 kPa and 0.02812 kPa
303.15 K | 0.04122 kPa and 0.04127 kPa
308.15 K | 0.05983 kPa and 0.05985 kPa and 0.05989 kPa

Details | Molar enthalpy of transition or fusion, Crystal 1 [kJ/mol] | Molar enthalpy of transition or fusion, Crystal 2 [kJ/mol] | Molar enthalpy of transition or fusion, Crystal 3 [kJ/mol] | Normal melting temperature, Crystal 1 [°C] | Triple point temperature, Crystal 2 [K] | Triple point temperature, Crystal 3 [K]
[1] | – | – | – | 175.4 | 373.4 | 243.9
[3] | 4.9 | 0.2 | 11 | – | – | –

[2], 101.33 kPa, Crystal 2, Large sample (1 g) DSC
Details | molar heat capacity at constant pressure [J/K/mol]
273.4 K | 241
278.5 K | 242
283.6 K | 243
288.7 K | 244.9
293.8 K | 246.6
298.9 K | 248.9
304 K | 251
309.1 K | 253.2
314.2 K | 255.5
319.4 K | 256.9
324.5 K | 259.7
329.6 K | 262.5
334.7 K | 264.8
339.8 K | 267.2
344.9 K | 270.5
350 K | 273.6
355.1 K | 276.7

CC1(C)[C@H]2CC[C@]1(C)[C@H](O)C2 [(1S-endo)-1,7,7-trimethylbicyclo[2.2.1]heptan-2-ol]
[1], Crystal 2
Details | vapor or sublimation pressure
273.65 K | 0.000211 kPa and 0.000212 kPa
278.15 K | 0.00036 kPa and 0.000361 kPa
283.15 K | 0.000638 kPa and 0.000639 kPa
288.15 K | 0.001105 kPa and 0.001106 kPa and 0.001104 kPa
293.15 K | 0.001882 kPa and 0.001883 kPa
298.15 K | 0.003159 kPa and 0.003161 kPa and 0.003162 kPa
303.15 K | 0.005213 kPa and 0.005214 kPa and 0.005215 kPa
308.15 K | 0.008461 kPa and 0.008464 kPa and 0.008465 kPa

Details | Molar enthalpy of transition or fusion, [3] [kJ/mol] | Normal melting temperature, [1] [°C] | Triple point temperature, [1] [K]
Crystal 1 | 7.3 | 207.2 | –
Crystal 2 | 3.2 | – | 347.9

[2], 101.33 kPa, Crystal 2, Large sample (1 g) DSC
Details | molar heat capacity at constant pressure [J/K/mol]
273.4 K | 237.9
278.5 K | 241.9
283.6 K | 246.4
288.7 K | 250.5
293.8 K | 255.4
298.9 K | 261.2
304 K | 266.7
309.1 K | 272.5
314.2 K | 279
319.4 K | 286.1
324.5 K | 293.6
329.6 K | 302
334.7 K | 311

CC1(C)C(=O)[C@@]2(C)CC[C@@H]1C2 [(+)-fenchone]
[1]
Details | vapor or sublimation pressure
238.15 K, Crystal 2 | 0.00014 kPa and 0.000141 kPa and 0.000142 kPa
243.15 K, Crystal 2 | 0.000277 kPa and 0.000278 kPa
243.15 K, Metastable liquid | 0.000763 kPa and 0.000764 kPa
248.15 K, Crystal 2 | 0.000547 kPa and 0.000548 kPa
248.15 K, Metastable liquid | 0.001307 kPa and 0.001308 kPa
253.15 K, Crystal 2 | 0.001053 kPa and 0.001054 kPa
253.15 K, Metastable liquid | 0.002188 kPa and 0.002189 kPa
258.15 K, Crystal 2 | 0.001988 kPa and 0.001991 kPa and 0.001993 kPa
258.15 K, Metastable liquid | 0.003604 kPa and 0.003605 kPa
263.15 K, Crystal 2 | 0.0037 kPa and 0.003705 kPa
263.15 K, Metastable liquid | 0.005827 kPa and 0.005828 kPa and 0.005829 kPa
268.15 K, Crystal 2 | 0.006751 kPa and 0.006753 kPa
268.15 K, Metastable liquid | 0.009242 kPa and 0.009244 kPa and 0.009246 kPa
273.15 K, Crystal 2 | 0.01206 kPa
273.15 K, Metastable liquid | 0.01436 kPa
278.15 K, Crystal 1 | 0.02111 kPa and 0.02112 kPa
278.15 K, Metastable liquid | 0.02193 kPa and 0.02194 kPa
283.15 K, Liquid | 0.03289 kPa and 0.0329 kPa and 0.03291 kPa
288.15 K, Liquid | 0.04842 kPa and 0.04845 kPa
293.15 K, Liquid | 0.07036 kPa and 0.07037 kPa
298.15 K, Liquid | 0.1007 kPa and 0.1008 kPa
303.15 K, Liquid | 0.1421 kPa
308.15 K, Liquid | 0.1977 kPa and 0.1978 kPa

Details | Molar enthalpy of transition or fusion, [3] [kJ/mol] | Normal melting temperature, [1] [°C] | Triple point temperature, [1] [K]
Crystal 1 | – | 5.5 | –
Crystal 2 | 17.4 | – | 278

[2], 101.33 kPa
Details | molar heat capacity at constant pressure [J/K/mol]
273.4 K, Metastable liquid, Large sample (1 g) DSC | 259.6
278.5 K, Metastable liquid, Large sample (1 g) DSC | 260.7
283.6 K, Large sample (1 g) DSC, Liquid | 263.6
288.7 K, Large sample (1 g) DSC, Liquid | 264.6
293.8 K, Large sample (1 g) DSC, Liquid | 266.6
298.9 K, Large sample (1 g) DSC, Liquid | 269.8
304 K, Large sample (1 g) DSC, Liquid | 271.8
309.1 K, Large sample (1 g) DSC, Liquid | 274.4
314.2 K, Large sample (1 g) DSC, Liquid | 277
319.4 K, Large sample (1 g) DSC, Liquid | 278.9
324.5 K, Large sample (1 g) DSC, Liquid | 281.7
329.6 K, Large sample (1 g) DSC, Liquid | 284.7
334.7 K, Large sample (1 g) DSC, Liquid | 287.3
339.8 K, Large sample (1 g) DSC, Liquid | 289.9
344.9 K, Large sample (1 g) DSC, Liquid | 292.7
350 K, Large sample (1 g) DSC, Liquid | 295.6
355.1 K, Large sample (1 g) DSC, Liquid | 298.8
